From US20200207734A1, “HETEROCYCLIC COMPOUND AND USE THEREOF” (Takeda Pharmaceutical Company Limited, priority 2017, published 2020)

Legend:
[1] = tested on: cynomolgus monkeys; assay: Evaluation of wake-promoting effects in cynomolgus monkeys (EEG/EMG/EOG); assay type: in vivo; settings: for response vs control in vivo at 1 mg/kg: Macaca fascicularis, sc, 4 h, s.c., cynomolgus monkeys, administered at ZT12, read-out: Wakefulness time (% of vehicle treatment) (Mean, n = 1-2); for Wakefulness time (% of vehicle treatment): 10 mg/kg, p.o., at ZT12, 4 h after administration, male cynomolgus monkeys, Mean, n = 4-8, cross-over design
Protocol: The wake-promoting effects were evaluated by measuring the electroencephalogram (EEG), electromyogram (EMG) and electrooculogram (EOG) in cynomolgus monkeys. Under isoflurane anesthesia (1-5%, Pfizer Japan Inc., Tokyo, Japan), male cynomolgus monkeys (3-5 years old, Hamri Co., Ltd., Ibaraki, Japan) were surgically implanted with radio-telemetry transmitters (TL10M3-D70-EEE, Data Sciences International Inc., MN, USA). EEG leads were stereotaxically positioned at the parietal area and secured to the cranium with stainless-steel screws in contact with the dura. […] Bilateral EMG leads were implanted into the back cervical muscles. After the surgery, each monkey was given penicillin (100,000 units/head, i.m., Meiji Seika Pharma Co., Ltd., Tokyo, Japan), buprenorphine (0.02 mg/kg, i.m., Otsuka Pharmaceutical Co., Ltd., Tokyo, Japan) and prednisolone (1 mg/kg, s.c., Kyoritsu Seiyaku Co., Ltd., Tokyo, Japan) daily for one week. After at least a 1-month recovery period in home cages, the monkeys were habituated to the recording chamber (an acrylic cage 60W×55D×75H (cm)) located in a soundproof, electrically shielded room. After we confirmed that monkeys slept sufficiently in the experimental room, cortical EEG, EMG and EOG signals were recorded using Dataquest ART software (Data Sciences International Inc., MN, USA). The signals were semi automatically scored in 20 sec epochs by a sleep scoring system (SleepSign, Kissei Comtec Co., Ltd., Nagano, Japan). This preliminary scoring was visually inspected and corrected if necessary. Test compound (10 mg/kg, Table 4-1) suspended in 0.5% methylcellulose aqueous solution, or vehicle (i.e., 0.5% methylcellulose aqueous solution) was administered orally (p.o.) to monkeys at zeitgeber time 12 (ZT12) in a volume of 5 mL/kg body weight in a cross-over design. EEG, EMG and EOG recordings were performed for 4 h after the compound administration/treatments. The time spent in wakefulness for 4 h after administration (% of vehicle treatment) was calculated by using SleepSign. Test compound (1 mg/kg, Table 4-2) dissolved in a mixed solution comprising 5% DMSO, 5% Cremophor EL, 20% PEG400 and 70% soluplus (1% (w/v)), or vehicle (i.e., a mixed solution comprising 5% DMSO, 5% Cremophor EL, 20% PEG400 and 70% soluplus (1% (w/v))) was administered subcutaneously (s.c.) to monkeys at ZT12 in a volume of 0.5 mL/kg body weight in a pre-post design. EEG, EMG and EOG recordings were performed for 4 h after the compound administration/treatments. The time spent in wakefulness for 4 h after administration (% of vehicle treatment) was calculated by using SleepSign.

[2] = target: T1, human orexin type 2 receptor (Homo sapiens, UniProt O43614); assay: Measurement of orexin type 2 receptor agonist activity (calcium fluorescence, CHO cells expressing hOX2R); assay type: cell-based; settings: test compound 3 μM; CHO cells expressing human OX2 receptor; DMSO = 0%, orexin A (human) = 100%
T1 construct: human orexin type 2 receptor cDNA was inserted into pcDNA3.1(+) plasmid vector (Invitrogen); expressed in transfected cells
T1 sequence (O43614 1-444): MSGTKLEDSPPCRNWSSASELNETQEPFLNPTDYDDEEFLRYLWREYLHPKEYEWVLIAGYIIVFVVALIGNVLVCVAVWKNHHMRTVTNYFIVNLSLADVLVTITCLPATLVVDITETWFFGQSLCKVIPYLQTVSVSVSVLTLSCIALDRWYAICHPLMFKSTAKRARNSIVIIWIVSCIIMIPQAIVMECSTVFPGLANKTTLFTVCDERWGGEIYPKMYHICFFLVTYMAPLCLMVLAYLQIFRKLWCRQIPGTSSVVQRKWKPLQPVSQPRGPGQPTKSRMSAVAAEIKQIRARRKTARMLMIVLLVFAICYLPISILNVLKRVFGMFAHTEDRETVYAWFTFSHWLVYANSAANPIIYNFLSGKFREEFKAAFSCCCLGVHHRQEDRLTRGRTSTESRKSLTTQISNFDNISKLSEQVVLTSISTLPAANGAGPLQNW
Procedure, shortened: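 CHO-dhfr cells stably expressing hOX2R, loaded with Fluo-4 AM in HBSS/20 mM HEPES/0.1% BSA with probenecid, then given test compound. Calcium fluorescence was read for about 2 min 40 sec. Activity (%) was scaled between DMSO (0%) and 10 nM final human orexin A (100%).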

[3] = Evaluation of microsome stability in human; assay type: in vitro ADME; settings: human liver microsomes 0.2 mg/mL, 1 μmol/L test compound, pH 7.4, NADPH-generating system, 15 and 30 min; read-out: Clearance (in vitro intrinsic metabolic clearance)
Protocol: Human liver microsomes were purchased from Xenotech, LLC (Lenexa, Kans.). An incubation mixture consisted of microsomes in 50 mmol/L KH2PO4—K2HPO4 phosphate buffer (pH 7.4) and 1 μmol/L test compound. The concentration of microsomal protein was 0.2 mg/mL. An NADPH-generating system (5 mmol/L MgCl2, 5 mmol/L glucose-6-phosphate, 0.5 mmol/L beta-NADP+ and 1.5 unit/mL glucose-6-phosphate dehydrogenase) was added to the incubation mixture with a half volume of the reaction mixture to initiate the enzyme reaction. The reaction was terminated 15 and 30 minutes after the initiation of the reaction by mixing the reaction mixture with acetonitrile, followed by centrifugation at 2500 rpm for 10 min. The supernatant was subjected to LC/MS/MS analysis. The metabolic velocity was calculated as the slope of the concentration-time plot. The in vitro intrinsic metabolic clearance was calculated by dividing initial metabolic velocity by the test compound concentration in the incubation mixture.

| Compound | response vs control in vivo at 1 mg/kg [1] [%] | OX2R agonist activity (3 μM, %) [2] [%] | microsomal CLint at 1 μmol/L [3] [µL/min/mg] | Wakefulness time (% of vehicle treatment) [1] |
| --- | --- | --- | --- | --- |
| CCS(=O)(=O)N[C@H]1CCN(C(=O)N2CCC2)[C@H]1Cc1cccc(-c2cc(F)cc(F)c2)c1 [Example 362, N-((2S,3S)-1-(azetidin-1-ylcarbonyl)-2-((3′,5′-difluorobiphenyl-3-yl)methyl)pyrrolidin-3-yl)ethanesulfonamide] | 271 | 103 | – | – |
| CCS(=O)(=O)N[C@H]1CCN(C(=O)N2CCC2)[C@H]1Cc1cccc(-c2ccccc2)c1 [Example 364, N-((2S,3S)-1-(azetidin-1-ylcarbonyl)-2-(biphenyl-3-ylmethyl)pyrrolidin-3-yl)ethanesulfonamide] | 375 | 104 | – | – |
| CCS(=O)(=O)N[C@H]1CCN(C(=O)N2CCC2)[C@H]1Cc1cccc(-c2cccc(F)c2)c1F [Example 372, N-((2S,3S)-1-(azetidin-1-ylcarbonyl)-2-((2,3′-difluorobiphenyl-3-yl)methyl)pyrrolidin-3-yl)ethanesulfonamide] | 328 | 98 | – | – |
| CN(C)C(=O)N1CC[C@H](NS(=O)(=O)N(C)C)[C@@H]1Cc1cccc(-c2cccc(F)c2)c1F [Example 377, (2S,3S)-2-((2,3′-difluorobiphenyl-3-yl)methyl)-3-((dimethylsulfamoyl)amino)-N,N-dimethylpyrrolidine-1-carboxamide] | 343 | 103 | – | – |
| CCS(=O)(=O)N[C@H]1CCN(C(=O)N(C)OC)[C@H]1Cc1cccc(-c2ccccc2)c1 [Example 407, (2S,3S)-2-(biphenyl-3-ylmethyl)-3-((ethylsulfonyl)amino)-N-methoxy-N-methylpyrrolidine-1-carboxamide] | 391 | 107 | – | – |
| CC(C)(O)C(=O)N1CC[C@H](NS(=O)(=O)C2(F)CC2)[C@@H]1Cc1cccc(-c2cccc(F)c2)c1F [Example 450, N-[(2S,3S)-2-[(2,3′-difluoro[1,1′-biphenyl]-3-yl)methyl]-1-(2-hydroxy-2-methylpropanoyl)pyrrolidin-3-yl]-1-fluorocyclopropane-1-sulfonamide] | 243 | 107 | 78 | – |
| CCS(=O)(=O)N[C@H]1CCN(C(=O)N2CCC2)[C@H]1Cc1cccc(-c2ccccc2)c1F [Example 456, N-{(2S,3S)-1-(azetidine-1-carbonyl)-2-[(2-fluoro[1,1′-biphenyl]-3-yl)methyl]pyrrolidin-3-yl}ethanesulfonamide] | 446 | 104 | – | – |
| CCS(=O)(=O)N[C@H]1CCN(C(=O)N(C)OC)[C@H]1Cc1cccc(-c2cccc(F)c2)c1 [Example 474, (2S,3S)-3-[(ethanesulfonyl)amino]-2-[(3′-fluoro[1,1′-biphenyl]-3-yl)methyl]-N-methoxy-N-methylpyrro-lidine-1-carboxamide] | 329 | 109 | – | – |
| CN(C)C(=O)N1CC[C@H](NS(=O)(=O)N(C)C)[C@@H]1Cc1cccc(-c2ccccc2)c1F [Example 475, (2S,3S)-3-[(dimethylsulfamoyl)amino]-2-[(2-fluoro[1,1′-biphenyl]-3-yl)methyl]-N,N-dimethyl-pyrrolidine-1-carboxamide] | 410 | 104 | – | – |
| CN(C)C(=O)N1CC[C@H](NS(=O)(=O)N(C)C)[C@@H]1Cc1cccc(-c2cc(F)cc(F)c2)c1F [Example 476, (2S,3S)-3-[(dimethylsulfamoyl)amino]-N,N-dimethyl-2-[(2,3′,5′-trifluoro[1,1′-biphenyl]-3-yl)methyl]pyrrolidine-1-carboxamide] | 392 | 103 | – | – |
| CCS(=O)(=O)N[C@H]1CCN(C(=O)N(C)OC)[C@H]1Cc1cccc(-c2cc(F)cc(F)c2)c1 [Example 477, (2S,3S)-2-[(3′,5′-difluoro[1,1′-biphenyl]-3-yl)methyl]-3-[(ethane-sulfonyl)amino]-N-methoxy-N-methylpyrrolidine-1-carboxamide] | 383 | 106 | – | – |
| CCS(=O)(=O)N[C@H]1CCN(C(=O)C(C)(C)O)[C@H]1Cc1cccc(-c2cccc(F)c2)c1F [Example 482, N-((2S,3S)-2-((2,3′-difluorobi-phenyl-3-yl)methyl)-1-(2-hydroxy-2-methylpropanoyl)pyrrolidin-3-yl)ethanesulfonamide] | – | 110 | 26 | 280.82 % of vehicle treatment |
| CC(C)(O)C(=O)N1CC[C@H](NS(C)(=O)=O)[C@@H]1Cc1cccc(-c2cc(F)cc(F)c2)c1F [Example 483, N-((2S,3S)-1-(2-hydroxy-2-methyl-propanoyl)-2-((2,3′,5′-trifluorobi-phenyl-3-yl)methyl)pyrrolidin-3-yl)methanesulfonamide] | – | 103 | 6 | 359.35 % of vehicle treatment |
| CS(=O)(=O)N[C@H]1CCN(C(=O)N2CCC2)[C@H]1Cc1cccc(-c2cccc(F)c2)c1F [Example 485, N-((2S,3S)-1-(azetidin-1-ylcarbonyl)-2-((2,3′-difluorobiphenyl-3-yl)methyl)pyrrolidin-3-yl)methanesulfonamide] | 449 | 104 | – | – |
| CCS(=O)(=O)N[C@H]1CCN(C(=O)N(C)C)[C@H]1Cc1cccc(-c2cccc(F)c2)c1F [Example 486, (2S,3S)-2-((2,3′-difluorobiphenyl-3-yl)methyl)-3-((ethylsulfonyl)amino)-N,N-dimethylpyrrolidine-1-carboxa-mide] | 328 | 102 | – | – |
| CCS(=O)(=O)N[C@H]1CCN(C(=O)N(C)C)[C@H]1Cc1cccc(-c2cc(F)cc(F)c2)c1F [Example 487, (2S,3S)-3-((ethylsulfonyl)amino)-N,N-dimethyl-2-((2,3′,5′-trifluorobi-phenyl-3-yl)methyl)pyrrolidine-1-carboxamide] | 355 | 104 | – | – |
